From US20080318227A1, “Intermediates and enzymes of the non-mevalonate isoprenoid pathway” (priority 2001, published 2008) come the findings set out here.

The target of one experiment is T1, IspG (GcpE) (Escherichia coli, UniProt P62620).
T1 construct: 100 μl crude cell extract of XL1-pACYClytBgcpE; made in house; host or cells: E. coli XL1-Blue harbouring pACYClytBgcpE (crude cell extract)
In words: Screening of IspG (GcpE) enzyme activity, crude cell extract of XL1-pACYClytBgcpE, radio-HPLC. It is filed as biochemical. The conditions noted are these: after 10 minutes of incubation at 37° C., NADH, CoCl2, pamidronate. How it is done: 0.2 g cells of XL1-pACYClytBgcpE are suspended in 1 ml 50 mM Tris hydrochloride, pH 7.4 and 2 mM DTT, cooled on ice and sonified 3×7 sec with a Branson Sonifier 250 (Branson SONIC Power Company) set to 80% duty cycle output, control value of 4 output. The suspension is centrifuged at 14000 rpm for 15 minutes. The supernatant is used as crude cell extract in assays described as follows.
The assay mixture contains 100 mM Tris hydrochloride, pH 7.4, 1.2 mM dithiothreitol, 10 mM NaF, 1 mM CoCl2, 2 mM NADH, 20 mM (18 μCi mol^−1) [2-^14C[…]2C-methyl-erythritol 2,4-cyclodiphophate, 0.5 mM pamidronate and 100 μl crude cell extract of XL1-pACYClytBgcpE in a total volume of 150 μl. The mixture is incubated for 10 to 45 min at 37° C. and cooled on ice. 10 μl of 30% (g/v) trichloroacetic acid are added and the mixture is neutralized with 20 μl of 1 M NaOH.
The mixture is centrifuged at 14.000 rpm for 10 minutes. Aliquotes of 130 μl of the supernatant are analyzed by reversed-phase ion-pair HPLC using a column of Multospher 120 RP 18-AQ-5 (4.6×250 mm, CS-Chromatographie Service GmbH, Langerwehe, Germany). […] The effluent is monitored by a continuous-flow radio detector (Beta-RAM, Biostep GmbH, Jahnsdorf, Germany). […]

The next experiment has as its system γδ T-cells. The experiment in a line: γδ T cell stimulation assay (PBMCs, FACS Vδ2 TCR/CD3 double staining). The format is cell-based, human. The conditions noted are these: for γδ T cell stimulation compared to IPP: at a concentration 200-fold lower than the concentration of the IPP sample; for % γδ T-cells: seven days. On the procedure: PBMCs from healthy donors (donor A and donor B) are isolated from heparinized peripheral blood by density centrifugation over Ficoll-Hypaque (Amersham Pharmacia Biotech, Freiburg, Germany). […] Amounts of recombinant human IL-2 (kindly provided by Eurocetus, Amsterdam, The Netherlands) and substrates are varied from 1 to 10 U and 10 to 0.1 μM, respectively. 20 μM IPP (Echelon, Research Laboratories Inc., Salt Lake City, USA) serves as a positive control whereas medium alone serves as negative control. Incubation is done for seven days at 37° C. in the presence of 7% CO2. The harvested cells are double-stained with fluorescein isothiocyanate (FITC)-conjugated mouse anti-human monoclonal antibody Vδ2 TCR and phycoerythrin (PE)-conjugated monoclonal CD3 antibody. The cells are analyzed using a FACScan supported with Cellquest (Becton Dickinson, Heidelberg, Germany).
The substrates (E)-1-hydroxy-3-methyl-but-2-enyl 4-diphosphate (HMBPP) and 3-formyl-but-2-enyl 1-diphosphate (Aldehyde) were prepared synthetically as described above.

The target of a further experiment is T2, IspH (LytB) (Escherichia coli, UniProt P62623).
T2 construct: 20 μl of crude cell extract of M15-pMALlytB cells; made in house; host or cells: E. coli M15 harbouring pMALlytB (crude cell extract)
T2 sequence (P62623 whole entry): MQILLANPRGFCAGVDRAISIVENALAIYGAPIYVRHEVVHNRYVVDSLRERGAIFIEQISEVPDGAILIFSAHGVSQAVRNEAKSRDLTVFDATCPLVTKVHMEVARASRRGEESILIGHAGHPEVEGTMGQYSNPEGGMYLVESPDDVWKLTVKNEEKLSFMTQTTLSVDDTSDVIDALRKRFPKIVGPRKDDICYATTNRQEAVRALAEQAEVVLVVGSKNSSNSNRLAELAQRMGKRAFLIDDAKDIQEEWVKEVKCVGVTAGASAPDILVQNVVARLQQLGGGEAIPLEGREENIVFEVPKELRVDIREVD
In words: Screening of IspH (LytB) activity, crude cell extract, radio-HPLC. It is filed as biochemical.

Experiment [1] concerns Capsicum annuum chromoplasts. The experiment in a line: Incorporation into the lipid soluble fraction of chromoplasts. The format is biochemical. The note with it: [2-14C] label, 8.8 nmol, 30° C. overnight. How it is done:
Chromoplasts are isolated by a slight modification of a method described by Camara (Camara, 1985; Camara, 1993). Pericarp of red pepper (650 g) is homogenized at 4° C. in 600 ml of 50 mM Hepes, pH 8.0, containing 1 mM DTE, 1 mM EDTA and 0.4 M sucrose (buffer A). The suspension is filtered through four layers of nylon cloth (50 μm) and centrifuged (10 min, 4,500 rpm, GSA rotor) to obtain a pellet of crude chromoplasts which is homogenized in 200 ml of buffer A. The suspension is centrifuged (10 min, 4,500 rpm, GSA rotor). The pellet is homogenized and resuspended in 3 ml of 50 mM Hepes, pH 7.6, containing 1 mM DTE. The suspension is filtered through one layer of nylon cloth (50 μm).
Reaction mixtures contain 100 mM Hepes, pH 7.6, 2 mM MnCl2, 10 mM MgCl2, 5 mM NaF, 2 mM NADP^+, 1 mM NADPH, 6 mM ATP, 20 μM FAD and 2 mg of chromoplasts. 8.8 nmol of [2-^14C]2C-methyl-D-erythritol 2,4-cyclodiphosphate, [2-^14C]1-hydroxy-2-methyl-2-(E)-butenyl diphosphate or [2-^14C]isopentenyl diphosphate (specific […] 15.8 μCi/μmol) are added and the mixtures are incubated at 30° C. overnight. The reaction is terminated by methylene chloride extraction. The organic phase is concentrated under a stream of nitrogen. […] The chromatograms are monitored with a phosphor imager (Storm 860, Molecular dynamics, Sunnyvale, Calif., USA). […]

Setting [2] is: substrate 0.1 μM, IL-2 1 U, Donor A.
[3] abbreviates: substrate 0.1 μM, IL-2 1 U, Donor B.
[4] abbreviates: substrate 0.1 μM, IL-2 5 U, Donor A.
Where [5] appears, read: substrate 0.1 μM, IL-2 5 U, Donor B.
Setting [6] is: substrate 0.1 μM, IL-2 10 U, Donor A.
[7] abbreviates: substrate 0.1 μM, IL-2 10 U, Donor B.
Where [8] appears, read: substrate 1 μM, IL-2 1 U, Donor A.
Setting [9] is: substrate 1 μM, IL-2 1 U, Donor B.
The mark [10] stands for this setting: substrate 1 μM, IL-2 5 U, Donor A.
[11] abbreviates: substrate 1 μM, IL-2 5 U, Donor B.
The mark [12] stands for this setting: substrate 1 μM, IL-2 10 U, Donor A.
Where [13] appears, read: substrate 1 μM, IL-2 10 U, Donor B.
Where [14] appears, read: substrate 10 μM, IL-2 1 U, Donor A.
Where [15] appears, read: substrate 10 μM, IL-2 1 U, Donor B.
The mark [16] stands for this setting: substrate 10 μM, IL-2 5 U, Donor A.
The mark [17] stands for this setting: substrate 10 μM, IL-2 5 U, Donor B.
Where [18] appears, read: substrate 10 μM, IL-2 10 U, Donor A.
The mark [19] stands for this setting: substrate 10 μM, IL-2 10 U, Donor B.

T1 sequence (P62620 whole entry): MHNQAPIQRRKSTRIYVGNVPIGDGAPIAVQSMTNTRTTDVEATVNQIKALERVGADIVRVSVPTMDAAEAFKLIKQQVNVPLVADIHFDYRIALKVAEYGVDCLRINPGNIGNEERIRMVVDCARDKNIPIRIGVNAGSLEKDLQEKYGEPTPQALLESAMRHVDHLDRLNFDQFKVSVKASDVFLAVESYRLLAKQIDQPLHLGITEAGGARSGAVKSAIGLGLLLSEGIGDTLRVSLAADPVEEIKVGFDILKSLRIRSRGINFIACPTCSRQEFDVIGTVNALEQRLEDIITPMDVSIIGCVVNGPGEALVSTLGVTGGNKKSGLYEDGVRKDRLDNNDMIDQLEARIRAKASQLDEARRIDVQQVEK

`C[C@@]1(CO)OP(=O)(O)OP(=O)(O)OC[C@H]1O` [2C-methyl-erythritol 2,4-cyclodiphophate, 2C-methyl-D-erythritol 2,4-cyclodiphosphate]: the “substrate converted into 1-hydroxy-2-methyl-2-(E)-butenyl-4-diphosphate and DMAPP/IPP” value at IspG (GcpE) is “about 13%”.

Take `C/C(=C\COP(=O)(O)OP(=O)(O)O)CO` [HMBPP, (E)-1-hydroxy-3-methyl-but-2-enyl 4-diphosphate]: the “γδ T cell stimulation compared to IPP” value with γδ T-cells is reported as “at least double stimulation compared to IPP”. The “% γδ T-cells” value in the experiment on γδ T-cells (setting [2]) came out at 11.78%; in the experiment with γδ T-cells (setting [3]) it was 32.21%; in the experiment with γδ T-cells (setting [4]), 22.92%; in the experiment on γδ T-cells (setting [5]), 44.69%; in the experiment on γδ T-cells (setting [6]) it was 34.69%; with γδ T-cells (setting [7]), 36.33%. For the same compound, the “% γδ T-cells” value was found to be 5.57% with γδ T-cells (setting [8]); 35.34% with γδ T-cells (setting [9]); 14.4% with γδ T-cells (setting [10]); 54.12% in the experiment with γδ T-cells (setting [11]); 19.85% in the experiment on γδ T-cells (setting [12]); 55.90% with γδ T-cells (setting [13]). Moreover, the “% γδ T-cells” value in the experiment with γδ T-cells (setting [14]) is on record as 3.3%; with γδ T-cells (setting [15]) it was 31.42%; with γδ T-cells (setting [16]), 17.38%; in the experiment with γδ T-cells (setting [17]), 63.48%; with γδ T-cells (setting [18]) it was 24.94%; in the experiment on γδ T-cells (setting [19]), 63.34%. The “HPLC peak of substrate; conversion into DMAPP and IPP” value at IspH (LytB) (crude cell extract of E. coli M15-pMALlytB cells, 30 min at 37° C., NADH, FAD, pamidronate) was “completely diminished”. Further, the “conversion into DMAPP and IPP” value at IspH (LytB) (crude cell extract of E. coli wild-type as protein source) is “No conversion”. The “radioactivity diverted into geranylgeraniol, carotene, phytoene and phytofluene fractions” value in experiment [1] was “efficiently diverted”.

Turning to “(E)-3-formyl-but-2-enyl 1-diphosphate [Aldehyde]”, the “γδ T cell stimulation compared to IPP” value with γδ T-cells is “at least double stimulation compared to IPP”. Moreover, the “% γδ T-cells” value in the experiment on γδ T-cells (setting [2]) worked out at 10%; in the experiment with γδ T-cells (setting [3]) it was 13.54%; in the experiment on γδ T-cells (setting [4]) it was 19.77%; in the experiment with γδ T-cells (setting [5]), 18.45%; in the experiment with γδ T-cells (setting [6]), 21.93%; in the experiment on γδ T-cells (setting [7]), 25.82%. The “% γδ T-cells” value in the experiment on γδ T-cells (setting [8]) was determined as 15.91%; in the experiment on γδ T-cells (setting [9]) it was 21.18%; in the experiment with γδ T-cells (setting [10]) it was 40.13%; with γδ T-cells (setting [11]), 30.76%; in the experiment on γδ T-cells (setting [12]), 48.28%; in the experiment with γδ T-cells (setting [13]), 36.69%. In addition, the “% γδ T-cells” value in the experiment on γδ T-cells (setting [14]) was 12.19%; with γδ T-cells (setting [15]), 30.69%; in the experiment with γδ T-cells (setting [16]), 34.69%; in the experiment with γδ T-cells (setting [17]) it was 30.33%; with γδ T-cells (setting [18]), 38.99%; in the experiment on γδ T-cells (setting [19]), 38.85%.

With `C=C(C)CCO[P@@](=O)(O)OP(=O)(O)O` [IPP, isopentenyl diphosphate, reference compound], the “% γδ T-cells” value came out at 1.3% in the experiment with γδ T-cells (setting [2]); 2.15% in the experiment with γδ T-cells (setting [3]); 1.3% in the experiment on γδ T-cells (setting [4]); 2.26% in the experiment with γδ T-cells (setting [5]); 1.01% in the experiment with γδ T-cells (setting [6]); 2.54% in the experiment with γδ T-cells (setting [7]). In addition, the “% γδ T-cells” value with γδ T-cells (setting [8]) turned out to be 1.56%; in the experiment on γδ T-cells (setting [9]), 2.22%; in the experiment with γδ T-cells (setting [10]) it was 1.59%; in the experiment on γδ T-cells (setting [11]) it was 2.67%; with γδ T-cells (setting [12]), 1.71%; with γδ T-cells (setting [13]) it was 2.19%. For the same compound, the “% γδ T-cells” value with γδ T-cells (substrate 20 μM, IL-2 1 U, Donor A) is listed as 8.19%; in the experiment on γδ T-cells (substrate 20 μM, IL-2 1 U, Donor B), 6.24%; with γδ T-cells (substrate 20 μM, IL-2 5 U, Donor A) it was 14.42%; in the experiment with γδ T-cells (substrate 20 μM, IL-2 5 U, Donor B) it was 9.32%; with γδ T-cells (substrate 20 μM, IL-2 10 U, Donor A) it was 16.6%; in the experiment on γδ T-cells (substrate 20 μM, IL-2 10 U, Donor B) it was 11.86%.
